Experiments:
sigma-1 receptor = sigma-1 receptor (Cavia porcellus, UniProt Q60492); experiment: Sigma-1 receptor competitive binding against; conditions: Sigma 1 K1 values (nM) (± SEM, n=3), R^2 value, guinea pig liver membranes, 10 nM (+)-[3H]-pentazocine, brackets: SEM
[1] = tested on: SKOV-3 (human ovarian adenocarcinoma); experiment: Multi-plex cytotoxicity assay, SKOV-3; assay type: cell-based; conditions: SKOV-3 cells

Sequence of sigma-1 receptor (Q60492 whole entry): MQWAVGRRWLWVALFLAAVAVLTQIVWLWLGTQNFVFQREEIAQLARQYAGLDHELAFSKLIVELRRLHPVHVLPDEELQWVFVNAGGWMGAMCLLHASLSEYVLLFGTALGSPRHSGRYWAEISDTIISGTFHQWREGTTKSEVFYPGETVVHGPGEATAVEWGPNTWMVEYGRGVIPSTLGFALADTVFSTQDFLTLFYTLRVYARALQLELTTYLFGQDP

Row | Ki (sigma-1 receptor) | Structure (SMILES) | Growth inhibition (in words) [1]
1 | > 100000 nM | CCCN(Cc1cccc([N+](=O)[O-])c1)C(=O)CCc1ccc(F)cc1 [compound 6, 3-(4-Fluorophenyl)-N-(3-nitrobenzyl)-N-propylpropanamide] | –
2 | – | CCCCN(CCCC)CCCc1ccc(F)cc1 [compound 9, N.N-Dibutyl-3-(4-fluorophenyl)propylamine] | the only cell line whose growth is inhibited by compound 9
